Consider two compounds from paper PMC7897442, “Mobility shift-based electrophoresis coupled with fluorescent detection enables real-time enzyme analysis of carbohydrate sulfatase activity” (Biochemical Journal, 2021).

On the set-up of series [1]: method as in PMID 36876452. The note with it: pH range; cited from earlier work.
Series [2] is described as follows: Stability of labelled substrate in CE assay without enzyme. Format: physicochemical. The note with it: absence of enzyme, CE assay conditions. The source says: 6S-N-acetyl-D-glucosamine was labelled at its reducing end with BODIPY which has a maximal emission absorbance of ∼503 nm, which can be detected by the EZ Reader II platform via LED-induced fluorescence. Non-radioactive microfluidic mobility shift carbohydrate sulfation assays were optimised in solution with a 12-sipper chip coated with CR8 reagent and performed using a PerkinElmer EZ Reader II system employing EDTA-based separation buffer and real-time kinetic evaluation of substrate desulfation. Pressure and voltage settings were adjusted manually (1.8 psi, upstream voltage: 2250 V, downstream voltage: 500 V) to afford optimal separation in the reaction mixture of the sulfated substrate and unsulfated glycan product, with a sample (sip) time of 0.2 s, and total assay times appropriate for the experiment. Individual de-sulfation assays were carried out at 28°C and were pre-assembled in a 384-well plate in a volume of 80 μl in the presence of substrate concentrations between 0.5 and 20 μM with 100 mM Bis-Tris-Propane (BTP) or Tris, dependent on the pH required, and 150 mM NaCl, 0.02% (v/v) Brij-35 and 5 mM CaCl2. The amount of de-sulfation was directly calculated in real-time using EZ Reader II software by measuring the sulfated carbohydrate : unsulfated carbohydrate ratio at each time point during the assay. […]

For the compound `Cc1cc(C)n2c1C=C1C=CC(CCC(=O)NN)=[N+]1[B-]2(F)F` [BODIPY-FL hydrazide, 4,4-difluoro-5,7-dimethyl-4-bora-3a,4a-diaza-s-indacene-3-propionic acid, hydrazide], the “stability over a variety of pH values” in series [1] is recorded as 3–12. In the case of `CC(=O)N[C@@H]1[C@@H](O)[C@H](O)[C@@H](COS(=O)(=O)O)O[C@H]1NNC(=O)CCC1=[N+]2C(=Cc3c(C)cc(C)n3[B-]2(F)F)C=C1` [6S-GlcNAc-BODIPY], the “amount of unsulfated substrate over the course of the reaction (stability)” value in series [2] was “remained constant”.
